From US8278343B2, “Pyrrolidines” (Pfizer Inc., priority 2008, dated 2012)
pKi: −log10 of the molar value.

Target: T1, recombinant human EP-2 receptor (Homo sapiens, UniProt P43116)
T1 construct: stably transfected with full length cDNA encoding human Prostaglandin E2; expressed in transfected cells
Assay: In vitro antagonist potency against recombinant human prostaglandin E2 (EP-2) receptor in CHO cells (cAMP, Protocol 1)
Assay type: cell-based
Details: CHO cells expressing recombinant human EP-2 receptor, stimulated with 5 nM PGE2; cAMP readout; Ki by Cheng-Prusoff equation; read-out: EP2 Ki
Experimental: 1.0 Measurement of In Vitro Antagonist Potency (IC50) of Compounds Against Recombinant Human Prostaglandin E2 Receptor in CHO Cells
The prostaglandin E2 (EP-2) receptor is Gs coupled and agonism of the receptor by PGE2 results in activation of intracellular adenylate cyclase enzymes that synthesise the second messenger signalling molecule, adenosine 3′,5′-cyclic monophosphate (cAMP). CHO cells expressing the recombinant human EP-2 receptor are stimulated with PGE2 (5 nM) equivalent to approximately […] values to give the maximal cAMP signal. Decreases in cAMP levels following treatment of stimulated recombinant EP-2 cells with potential antagonist compounds were measured and potency (IC50) calculated as follows.
A Chinese hamster ovary (CHO) cell line stably transfected with full length cDNA encoding human Prostaglandin E2 was established using standard molecular biology methods. Test compounds were dissolved in dimethyl sulphoxide (DMSO) at 4 mM. 11 point half log unit increment dilution series of test compound were prepared in DMSO then diluted 1 in 40 in a buffer comprised of phosphate buffered saline (PBS) and 0.05% pluronic F-127 surfactant. Freshly cultured cells at 80-90% confluence were harvested and re-suspended in 90% growth media/10% DMSO. The cells were frozen using a planar freezer and stored in frozen aliquots in cryovials in liquid nitrogen until the day of the experiment. A vial of cells was defrosted in a 37° C. water bath for 2 min, then transferred to 10 ml of Dulbecco's Modified Eagle's Medium (DMEM). The cells were then centrifuged for 5 min at 1000 g and the pellet re-suspended at 1,000,000 cells/ml in DMEM. 5,000 cells (5 ul) were added to 5 ul of the compound dilution series in a 384 well assay plate and pre-incubated for 30 min at 37° C. 5 ul of agonist (15 nM PGE2 in PBS to give 5 nM FAC) was added and plates further incubated for 90 min at 37° C. The relative cAMP concentration in each well was then measured using a β-galactosidase enzyme fragment complementation method purchased in kit form as the Discoverx cAMP II kit from GE Healthcare, UK. […] Sigmoidal curves were fitted to plots of log10 inhibitor concentration vs percent effect. IC50 estimates were determined as the concentration of test compound giving an effect half way between the bottom and top asymptotes of the sigmoidal dose response curve. Each experiment included an IC50 determination for the literature compound as a standard to track assay consistency and allow fair comparison between values obtained in different experiments. The EC50 of PGE2 is used in combination with the ligand concentration in the assay to determine Ki values for antagonist dose responses using the Cheng-Prusoff equation. Consequently an agonist dose response curve is carried out for each experiment using the same incubation as the antagonist plate.

T1 sequence (P43116 whole entry): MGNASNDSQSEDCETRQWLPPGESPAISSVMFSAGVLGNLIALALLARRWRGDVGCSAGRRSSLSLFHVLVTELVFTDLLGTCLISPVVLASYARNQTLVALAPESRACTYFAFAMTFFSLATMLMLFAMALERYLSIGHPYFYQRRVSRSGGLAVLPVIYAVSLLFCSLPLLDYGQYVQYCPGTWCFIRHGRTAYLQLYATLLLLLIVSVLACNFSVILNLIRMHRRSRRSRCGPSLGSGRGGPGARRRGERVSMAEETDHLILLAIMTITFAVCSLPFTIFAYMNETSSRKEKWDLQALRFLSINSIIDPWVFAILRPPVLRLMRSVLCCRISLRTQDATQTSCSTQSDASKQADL

COc1ccc(C(=O)N2CCC(COc3ccc(-c4ccc(C#N)cc4)cc3)(C(=O)O)C2)cc1 (single isomer, unassigned) [Example 1, 3-(4′-Cyano-biphenyl-4-yloxymethyl)-1-(4-methoxy-benzoyl)-pyrrolidine-3-carboxylic acid]
pKi: 9.20

N#Cc1ccc(-c2ccc(OCC3(C(=O)O)CCN(C(=O)c4ccc(F)cc4)C3)cc2)cc1 (single isomer, unassigned) [Example 2, 3-(4′-Cyano-biphenyl-4-yloxymethyl)-1-(4-fluoro-benzoyl)-pyrrolidine-3-carboxylic acid]
pKi: 9.46

O=C(c1ccc(F)cc1)N1CCC(COc2cnc(-c3ccc(Cl)cc3)nc2)(C(=O)O)C1 (single isomer, unassigned) [Example 5]
pKi: 8.79

O=C(c1ccc(F)cc1)N1CCC(COc2cnc(-c3ccc(Cl)cc3)nc2)(C(=O)O)C1 (single isomer, unassigned) [Example 6]
pKi: 6.99

O=C(c1ccc(F)cc1)N1CCC(COc2ccc(-c3ccc(Cl)cc3)nc2)(C(=O)O)C1 (single isomer, unassigned) [Example 7]
pKi: 8.53

O=C(c1ccc(F)cc1)N1CCC(COc2cnc(-c3ccc(Cl)cc3)cn2)(C(=O)O)C1 (single isomer, unassigned) [Example 10]
pKi: 9.13

O=C(c1ccc(F)cc1)N1CCC(COc2cnc(-c3ccc(Cl)cc3)cn2)(C(=O)O)C1 (single isomer, unassigned) [Example 11]
pKi: 7.54

O=C(c1ccc(F)cc1)N1CCC(COc2ccc(-c3ccc(Cl)cn3)cc2)(C(=O)O)C1 (single isomer, unassigned) [Example 12]
pKi: 8.32

O=C(c1ccc(F)cc1)N1CCC(COc2ccc(-c3ccc(Cl)cn3)cc2)(C(=O)O)C1 (single isomer, unassigned) [Example 13]
pKi: 6.48

O=C(c1ccc(F)cc1)N1CCC(COc2cccc(F)c2F)(C(=O)O)C1 (single isomer, unassigned) [Example 14]
pKi: 6.28

O=C(c1ccc(F)cc1)N1CCC(COc2ccc(-c3ncc(Cl)cn3)cc2)(C(=O)O)C1 (single isomer, unassigned) [Example 15]
pKi: 7.07

O=C(c1ccc(F)cc1)N1CCC(COc2ccc(-c3ncc(Cl)cn3)cc2)(C(=O)O)C1 (single isomer, unassigned) [Example 16]
pKi: 9.16

O=C(c1ccc(F)cc1)N1CCC(COc2ccc(-c3ccc(F)cc3)cc2)(C(=O)O)C1 (single isomer, unassigned) [Example 17]
pKi: 8.70

O=C(c1ccc(F)cc1)N1CCC(COc2ccc(-c3ccc(F)cc3)cc2)(C(=O)O)C1 (single isomer, unassigned) [Example 18]
pKi: 7.76

O=C(c1ccc(F)cc1)N1CCC(COc2ccc(F)c(Cl)c2)(C(=O)O)C1 (single isomer, unassigned) [Example 25]
pKi: 6.72

N#Cc1ccc(-c2ccc(OCC3(C(=O)O)CCN(C(=O)c4ccc(Cl)cc4)C3)cc2)cc1 (single isomer, unassigned) [Example 26]
pKi: 10.42

N#Cc1ccc(-c2ccc(OCC3(C(=O)O)CCN(C(=O)c4ccc(Cl)cc4)C3)cc2)cc1 (single isomer, unassigned) [Example 27]
pKi: 8.36

O=C(c1ccc(Cl)cc1)N1CCC(COc2ccc(-c3ncc(Cl)cn3)cc2)(C(=O)O)C1 (single isomer, unassigned) [Example 30]
pKi: 9.34

O=C(c1ccc(Cl)cc1)N1CCC(COc2ccc(-c3ncc(Cl)cn3)cc2)(C(=O)O)C1 (single isomer, unassigned) [Example 31]
pKi: 6.55

O=C(c1ccc(Cl)cc1)N1CCC(COc2ccc(-c3ccc(Cl)cc3)nc2)(C(=O)O)C1 (single isomer, unassigned) [Example 32]
pKi: 9.13

O=C(c1ccc(Cl)cc1)N1CCC(COc2ccc(-c3ccc(Cl)cc3)nc2)(C(=O)O)C1 (single isomer, unassigned) [Example 33]
pKi: 6.85

O=C(c1ccc(Cl)cc1)N1CCC(COc2cnc(-c3ccc(Cl)cc3)cn2)(C(=O)O)C1 (single isomer, unassigned) [Example 34]
pKi: 9.13

O=C(c1ccc(Cl)cc1)N1CCC(COc2cnc(-c3ccc(Cl)cc3)cn2)(C(=O)O)C1 (single isomer, unassigned) [Example 35]
pKi: 6.98

O=C(c1ccc(Cl)cc1)N1CCC(COc2ccc(-c3ccc(F)cc3)cc2)(C(=O)O)C1 (single isomer, unassigned) [Example 36]
pKi: 8.94

O=C(c1ccc(Cl)cc1)N1CCC(COc2ccc(-c3ccc(F)cc3)cc2)(C(=O)O)C1 (single isomer, unassigned) [Example 37]
pKi: 7.52

COc1ccc(C(=O)N2CCC(COc3cnc(-c4ccc(Cl)cc4)cn3)(C(=O)O)C2)cc1 (single isomer, unassigned) [Example 38]
pKi: 8.51

COc1ccc(C(=O)N2CCC(COc3cnc(-c4ccc(Cl)cc4)cn3)(C(=O)O)C2)cc1 (single isomer, unassigned) [Example 39]
pKi: 7.32

COc1ccc(C(=O)N2CCC(COc3ccc(-c4ccc(F)cc4)cc3)(C(=O)O)C2)cc1 (single isomer, unassigned) [Example 40]
pKi: 8.63

COc1ccc(C(=O)N2CCC(COc3ccc(-c4ccc(F)cc4)cc3)(C(=O)O)C2)cc1 (single isomer, unassigned) [Example 41]
pKi: 7.17

COc1ccc(C(=O)N2CCC(COc3ccc(-c4ncc(Cl)cn4)cc3)(C(=O)O)C2)cc1 (single isomer, unassigned) [Example 42]
pKi: 8.53

COc1ccc(C(=O)N2CCC(COc3ccc(-c4ncc(Cl)cn4)cc3)(C(=O)O)C2)cc1 (single isomer, unassigned) [Example 43]
pKi: 6.84

COc1ccc(C(=O)N2CCC(COc3ccc(-c4ccc(Cl)cc4)nc3)(C(=O)O)C2)cc1 (single isomer, unassigned) [Example 44]
pKi: 8.42

COc1ccc(C(=O)N2CCC(COc3ccc(-c4ccc(Cl)cc4)nc3)(C(=O)O)C2)cc1 (single isomer, unassigned) [Example 45]
pKi: 6.77

COc1ccc(C(=O)N2CCC(COc3ccc(-c4ccc(Cl)cn4)cc3)(C(=O)O)C2)cc1 (single isomer, unassigned) [Example 46]
pKi: 7.63

COc1ccc(C(=O)N2CCC(COc3ccc(-c4ccc(Cl)cn4)cc3)(C(=O)O)C2)cc1 (single isomer, unassigned) [Example 47]
pKi: 6.65

COc1ccc(C(=O)N2CCC(COc3cnc(-c4ccc(Cl)cc4)nc3)(C(=O)O)C2)cc1 (single isomer, unassigned) [Example 49]
pKi: 6.91

COc1ccc(C(=O)N2CCC(COc3cnc(-c4ccc(Cl)cc4)nc3)(C(=O)O)C2)cc1 (single isomer, unassigned) [Example 50]
pKi: 8.73

CCOc1ccccc1C(=O)N1CCC(COc2cnc(-c3ccc(Cl)cc3)cn2)(C(=O)O)C1 (single isomer, unassigned) [Example 51]
pKi: 7.71

CCOc1ccccc1C(=O)N1CCC(COc2cnc(-c3ccc(Cl)cc3)cn2)(C(=O)O)C1 (single isomer, unassigned) [Example 52]
pKi: 6.87

CCOc1ccccc1C(=O)N1CCC(COc2ccc(-c3ccc(F)cc3)cc2)(C(=O)O)C1 (single isomer, unassigned) [Example 53]
pKi: 7.76

CCOc1ccccc1C(=O)N1CCC(COc2ccc(-c3ccc(F)cc3)cc2)(C(=O)O)C1 (single isomer, unassigned) [Example 54]
pKi: 6.41

CCOc1ccccc1C(=O)N1CCC(COc2ccc(-c3ncc(Cl)cn3)cc2)(C(=O)O)C1 (single isomer, unassigned) [Example 55]
pKi: 7.54

CCOc1ccccc1C(=O)N1CCC(COc2ccc(-c3ncc(Cl)cn3)cc2)(C(=O)O)C1 (single isomer, unassigned) [Example 56]
pKi: 6.33

CCOc1ccccc1C(=O)N1CCC(COc2cnc(-c3ccc(Cl)cc3)nc2)(C(=O)O)C1 (single isomer, unassigned) [Example 57]
pKi: 7.53

CCOc1ccccc1C(=O)N1CCC(COc2cnc(-c3ccc(Cl)cc3)nc2)(C(=O)O)C1 (single isomer, unassigned) [Example 58]
pKi: 6.05

COc1ccccc1C(=O)N1CCC(COc2cnc(-c3ccc(Cl)cc3)cn2)(C(=O)O)C1 (single isomer, unassigned) [Example 59]
pKi: 7.01

COc1ccccc1C(=O)N1CCC(COc2ccc(-c3ccc(C#N)cc3)nc2)(C(=O)O)C1 (single isomer, unassigned) [Example 61]
pKi: 7.58
